The target of series [1] is T1, human topoisomerase I (Homo sapiens, UniProt P11387).
T1 construct: unnamed fusion partner (recombinant fusion protein); made in house
T1 sequence (P11387 1-765): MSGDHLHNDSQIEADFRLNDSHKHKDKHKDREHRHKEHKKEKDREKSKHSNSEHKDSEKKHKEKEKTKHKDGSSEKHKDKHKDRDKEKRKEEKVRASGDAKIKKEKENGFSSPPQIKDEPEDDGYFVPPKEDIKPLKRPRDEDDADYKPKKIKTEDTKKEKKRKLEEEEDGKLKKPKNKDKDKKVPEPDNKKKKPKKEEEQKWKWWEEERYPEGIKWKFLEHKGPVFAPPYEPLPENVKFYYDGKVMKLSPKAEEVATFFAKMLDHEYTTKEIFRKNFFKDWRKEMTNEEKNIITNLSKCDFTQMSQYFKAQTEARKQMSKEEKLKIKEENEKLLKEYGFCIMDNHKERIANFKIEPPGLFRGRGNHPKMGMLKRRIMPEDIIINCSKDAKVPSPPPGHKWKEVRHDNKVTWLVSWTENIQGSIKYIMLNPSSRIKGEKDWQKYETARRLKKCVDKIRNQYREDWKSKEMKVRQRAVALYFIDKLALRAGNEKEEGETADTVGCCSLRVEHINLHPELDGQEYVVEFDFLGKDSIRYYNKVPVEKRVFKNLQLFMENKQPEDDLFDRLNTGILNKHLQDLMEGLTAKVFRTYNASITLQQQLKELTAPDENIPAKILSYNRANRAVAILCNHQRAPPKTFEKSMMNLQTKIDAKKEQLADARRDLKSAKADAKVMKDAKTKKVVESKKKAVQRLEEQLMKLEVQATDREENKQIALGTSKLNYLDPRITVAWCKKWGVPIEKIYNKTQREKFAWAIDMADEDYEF
In words: Test A. Topoisomerase I Cleavage Assay. As to conditions: concentration relative to compound 5 (arbitrarily assumed as 1) producing the same cleavage on plasmid DNA with human topoisomerase I. The format is biochemical. The procedure: Test A. Topoisomerase I Cleavage Assay
Representative compounds of the invention were evaluated in a cleavage assay using recombinant topoisomerases I. This assay was preformed as described by B. Gatto et al. Cancer Res., 1996, 56, 2795–2800. Human topoisomerase I was isolated as a recombinant fusion protein using a T7 expression system. Plasmid YEpG was purified by the alkali lysis method followed by phenol deproteination and CsCl/ethidium isopycnic centrifugation as described by Maniatis, T.; Fritsch, E. F.; Sambrook, J. Molecular Cloning, a Laboratory Manual; Cold Spring Harbor Laboratory: Cold Spring Harbor, N.Y. 1982; pp 149–185. The end-labeling of the plasmid was accomplished by digestion with a restriction enzyme followed by end-filling with Klenow polymerase as previously described by Liu, L. F.; Rowe, T. C.; Yang, L.; Tewey, K. M.; Chen, G. L. “Cleavage of DNA by mammalian topoisomerase II,” J. Biol. Chem. 1983, 258, 15365. IC50 values were calculated after 4 days of continuous drug exposure. Topoisomerase I cleavage values are reported as REC, Relative Effective Concentration (i.e., concentrations relative to compound 5, whose value is arbitrarily assumed as 1) that is able to produce the same cleavage on the plasmid DNA in the presence of human topoisomerase I.

Series [2] has as its system RPMI 8402 cells. In words: Test B. MTT cytotoxicity assay (MTA), RPMI 8402. The class given is cell-based. Conditions: RPMI 8402 human lymphoblast; continuous drug exposure, MTT at end of fourth day. On the procedure: (§1) Test B. Cytotoxicity Assay
(§2) Cytotoxicity was determined using the MTT-microtiter plate tetrazolinium cytotoxicity assay (MTA) (See Chen A. Y. et al. Cancer Res. 1993, 53, 1332; Mosmann, T. J., J. Immunol. Methods 1983, 65, 55; and Carmichael, J. et al. Cancer Res. 1987, 47, 936). The human lymphoblast RPMI 8402 and its camptothecin-resistant variant cell line, CPT-K5 were provided by Dr. Toshiwo Andoh (Aichi Cancer Center Research Institute, Nagoya, Japan) (see Andoh, T.; Okada, K. “Drug resistance mechanisms of topoisomerase I drugs,” Adv. in Pharmacology 1994, 29B, 93. The cytotoxicity assay was performed using 96-well microtiter plates. Cells were grown in suspension at 37° C. in 5% CO2 and maintained by regular passage in RPMI medium supplemented with 10% heat-inactivated fetal bovine serum, L-glutamine (2 mM), penicillin (100 U/mL), and streptomycin (0.1 mg/mL). For determination of IC50, cells were exposed continuously with varying concentrations of drug and MTT assays were performed at the end of the fourth day.

In series [3] the test system is CPT-K5 (camptothecin-resistant variant of RPMI 8402). In words: Test B. MTT cytotoxicity assay (MTA), CPT-K5. The format is cell-based, human. Conditions: continuous drug exposure, MTT at end of fourth day. On the procedure:
as §1, §2
A general note: Tetrazolium assays rely on reduction of a dye to a coloured formazan, in cell work by metabolically active cells.

For `c1ccc(-c2ccc3[nH]c(-c4ccc5[nH]c(-c6ccc7nccnc7c6)nc5c4)nc3c2)cc1` [Compound 3, 5-Phenyl-2′-(quinoxaline-6-yl)-bibenzimidazole], in series [1], the “Topo I-mediated DNA cleavage (REC, Relative Effective Concentration)” value is reported as 1. Moreover, the IC50 in series [2] turned out to be 2300 nM; in series [3], 21000 nM.

With `c1ccc(-c2ccc3[nH]c(-c4ccc5[nH]c(-c6ccc7[nH]nnc7c6)nc5c4)nc3c2)cc1` [Compound 2, 5-Phenyl-2′-(benzotriazol-5-yl)-bibenzimidazole], the “Topo I-mediated DNA cleavage (REC, Relative Effective Concentration)” value in series [1] is given as 1. Besides, the IC50 in series [2] and in series [3] was 470 nM each time.

Take `O=c1[nH]c2ccc(-c3nc4cc(-c5nc6cc(-c7ccccc7)ccc6[nH]5)ccc4[nH]3)cc2[nH]c1=O` [Compound 4, 5-Phenyl-2′-(quinoxalinedione-6-yl)bibenzimidazole]: the 50% inhibitory concentration (IC50) in series [2] is 20000 nM; in series [3], over 20000 nM.

For orientation: IC50 means the concentration needed to halve the response being measured. Read a high IC50 as a need for much substance.

These data come from patent publication US6995154B2, “Heterocyclic topoisomerase poisons” (Rutgers, The State University of New Jersey, priority 1997, dated 2006).
